Patent US9980943B2, “Methods of treating muscular dystrophy” (BOARD OF REGENTS OF THE NEVADA SYSTEM OF HIGHER EDUCATION, …, priority 2013, dated 2018)

Tests used:
Type in all cases: cell-based, mouse
[1] = tested on: α7 integrin (LacZ reporter in α7+/LacZ myotubes); assay: Myotube α7 integrin FDG assay (Burkin assay in myotubes, 96-well); details: myotubes
[2] = tested on: α7 integrin (LacZ reporter in α7βgal+/− myoblasts); assay: Myoblast α7+/LacZ integrin FDG assay (Burkin assay in myoblasts, 96-well); details: α7+/LacZ myoblasts, 96-well
[3] = tested on: β-galactosidase in CMV-LacZ C2C12 myotubes; assay: CMV-LacZ secondary screen in C2C12 myotubes (β-Gal stabilizing assay); details: C2C12 CMV-LacZ myotubes, fold relative to DMSO
How it was run: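 β-Gal level was the read-out, measured in a clonal C2C12 line expressing LacZ from a CMV promoter. Dose-response curves used six concentrations, 0.5 μM up to 40 μM, with duplicate points.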

[4] = tested on: β-galactosidase in CMV-LacZ C2C12 myoblasts; assay: CMV-LacZ secondary screen in C2C12 myoblasts (β-Gal stabilizing assay); details: CMV-LacZ C2C12 myoblasts
How it was run: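 A secondary screen identifies compounds that stabilize β-gal independently of the native promoter, using CMV-LacZ C2C12 cells. Curves span 0.5–40 μM at six levels, in duplicate.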

| SMILES | Burkin Assay in Myotubes, α7 integrin LacZ reporter signal relative to DMSO ([1]; 0.5 uM) | Burkin Assay in Myotubes, α7 integrin LacZ reporter signal relative to DMSO ([1]; 1 uM) | Burkin Assay in Myotubes, α7 integrin LacZ reporter signal relative to DMSO ([1]; 5 uM) | Burkin Assay in Myotubes, α7 integrin LacZ reporter signal relative to DMSO ([1]; 10 uM) | Burkin Assay in Myotubes, α7 integrin LacZ reporter signal relative to DMSO ([1]; 20 uM) | Burkin Assay in Myotubes, α7 integrin LacZ reporter signal relative to DMSO ([1]; 40 uM) | Burkin Assay in Myoblasts, signal relative to DMSO ([2]; 0.5 uM) | Burkin Assay in Myoblasts, signal relative to DMSO ([2]; 1 uM) | Burkin Assay in Myoblasts, signal relative to DMSO ([2]; 5 uM) | Burkin Assay in Myoblasts, signal relative to DMSO ([2]; 10 uM) | Burkin Assay in Myoblasts, signal relative to DMSO ([2]; 20 uM) | Burkin Assay in Myoblasts, signal relative to DMSO ([2]; 40 uM) | CMV-LACZ in Myotubes, signal relative to DMSO ([3]; 0.5 uM) | CMV-LACZ in Myotubes, signal relative to DMSO ([3]; 1 uM) | CMV-LACZ in Myotubes, signal relative to DMSO ([3]; 5 uM) | CMV-LACZ in Myotubes, signal relative to DMSO ([3]; 10 uM) | CMV-LACZ in Myotubes, signal relative to DMSO ([3]; 20 uM) | CMV-LACZ in Myotubes, signal relative to DMSO ([3]; 40 uM) | CMV-LACZ in Myoblasts (β-galactosidase activity relative to DMSO) ([4]; 0.5 uM) | CMV-LACZ in Myoblasts (β-galactosidase activity relative to DMSO) ([4]; 1 uM) | further results |
| --- | --- | --- | --- | --- | --- | --- | --- | --- | --- | --- | --- | --- | --- | --- | --- | --- | --- | --- | --- | --- | --- |
| Cc1[nH]c2ccc(F)cc2c1CCN(Cc1ccco1)C(=S)NC(C)(C)C [MLS000419286-01] | 0.9511 | 0.8124 | 0.879 | 0.948 | 0.457 | 0.193 | 1.166 | 1.002 | 0.9174 | 0.8951 | 0.7945 | 0.7199 | 0.9990 | 1.1867 | 1.0268 | 1.1581 | 0.8530 | 0.7830 | 0.9960 | 0.7960 | CMV-LACZ in Myoblasts (β-galactosidase activity relative to DMSO) ([4]; 5 uM): 0.9701; CMV-LACZ in Myoblasts (β-galactosidase activity relative to DMSO) ([4]; 10 uM): 0.8022; CMV-LACZ in Myoblasts (β-galactosidase activity relative to DMSO) ([4]; 20 uM): 0.9368; CMV-LACZ in Myoblasts (β-galactosidase activity relative to DMSO) ([4]; 40 uM): 0.6295 |
| N#C/C(=C/c1ccc(N2CCOCC2)o1)C(=O)Nc1ccccc1 [MLS000689218-01] | 0.9663 | 1.083 | 0.97 | 0.9829 | 1.008 | 0.9676 | 1.068 | 1.171 | 1.132 | 1.051 | 1.07 | 1.037 | 0.9657 | 0.9514 | 1.3684 | 1.2135 | 1.4900 | 1.7990 | 1.1977 | 1.2273 | CMV-LACZ in Myoblasts (β-galactosidase activity relative to DMSO) ([4]; 5 uM): 0.8689; CMV-LACZ in Myoblasts (β-galactosidase activity relative to DMSO) ([4]; 10 uM): 1.0813; CMV-LACZ in Myoblasts (β-galactosidase activity relative to DMSO) ([4]; 20 uM): 1.2835; CMV-LACZ in Myoblasts (β-galactosidase activity relative to DMSO) ([4]; 40 uM): 1.6337 |
| Cc1ccc2c(c1)/C(=C/c1ccco1)C(=O)N2 [MLS000682750-01] | 0.9957 | 0.9939 | 1.073 | 0.8839 | 1.002 | 0.7064 | 1.203 | 1.02 | 1.229 | 1.076 | 1.124 | 1.103 | 1.0248 | 0.9638 | 1.1285 | 1.0939 | 1.1189 | 1.0579 | 0.9679 | 1.0467 | CMV-LACZ in Myoblasts (β-galactosidase activity relative to DMSO) ([4]; 5 uM): 0.8717; CMV-LACZ in Myoblasts (β-galactosidase activity relative to DMSO) ([4]; 10 uM): 0.9934; CMV-LACZ in Myoblasts (β-galactosidase activity relative to DMSO) ([4]; 20 uM): 1.1433; CMV-LACZ in Myoblasts (β-galactosidase activity relative to DMSO) ([4]; 40 uM): 1.0404 |
